Measurements taken from patent US12433952B2, “Antibody-drug conjugates targeting folate receptor alpha and methods of use” (ZYMEWORKS BC INC., priority 2022, dated 2025).
Like-named read-outs stand apart in the source and are kept apart here.

What was measured:
Assay in all cases: In vitro cytotoxicity of camptothecin analogues (CellTiter-Glo)
Type in all cases: cell-based
SKOV-3 (ovarian cancer) = details: Homo sapiens, SK-OV-3, 96 h, read-out: pIC50 SKOV-3 (converted)
Procedure: (§1) Cytotoxicity of the camptothecin analogues was assessed in vitro as follows.
(§2) In vitro potency was assessed on multiple cancer cell lines: SK-BR-3 (breast cancer), SKOV-3 (ovarian cancer), Calu-3 (lung cancer), ZR-75-1 (breast cancer) and MDA-MB-468 (breast cancer). Serial dilutions of camptothecin analogues were prepared in RPMI 1640+10% FBS, and 20 μL of each dilution was added to 384-well plates. Cells cultured in log-phase growth were detached by brief incubation in 0.05% Trypsin and resuspended in respective culturing media at 20,000 cells/mL (with the exception of ZR-75 cells, which were resuspended at 10,000 cells/mL). 50 μL of cell suspension was then added to the plates containing test articles. Cells were incubated with test articles for 4 d at 37° C. (with the exception of ZR-75 cells, which were incubated for 5 d). Growth inhibition was assessed by CellTiter-Glo® (Promega Corporation, Madison, WI) and luminescence was measured on a plate reader. IC50 values were determined by GraphPad Prism (GraphPad Software, San Diego CA).

[1] = tested on: MDA-MB-468 (breast cancer); details: Homo sapiens, MDA-MB-468, 96 h, read-out: pIC50 MDA-MB-468 (converted)
Procedure: as §1, §2

ZR-75-1 (breast cancer) = details: Homo sapiens, ZR-75-1, 120 h, read-out: pIC50 ZR-75 (converted)
Procedure: as §1, §2

SK-BR-3 (breast cancer) = details: Homo sapiens, SK-BR-3, 96 h, read-out: pIC50 SKBR-3 (converted)
Procedure: as §1, §2

Calu-3 (lung cancer) = details: Homo sapiens, Calu-3, 96 h, read-out: pIC50 Calu-3 (converted)
Procedure: as §1, §2

CC[C@@]1(O)C(=O)OCc2c1cc1n(c2=O)Cc2c-1nc1cc(F)c(C)cc1c2CNS(C)(=O)=O [Compound 122, (S)—N-((4-ethyl-8-fluoro-4-hydroxy-9-methyl-3,14-dioxo-3,4,12,14-tetrahydro-1H-pyrano[3′,4′:6,7]indolizino[1,2-b]quinolin-11-yl)methyl)methanesulfonamide]
IC50 (SKOV-3 (ovarian cancer)): 9.12 nM
IC50 [1]: 1.1 nM
IC50 (ZR-75-1 (breast cancer)): 1.29 nM
IC50 (SK-BR-3 (breast cancer)): 1.12 nM
IC50 (Calu-3 (lung cancer)): 3.72 nM

CC[C@@]1(O)C(=O)OCc2c1cc1n(c2=O)Cc2c-1nc1cc(F)c(OC)cc1c2CNS(C)(=O)=O [Compound 123, (S)—N-((4-ethyl-8-fluoro-4-hydroxy-9-methoxy-3,14-dioxo-3,4,12,14-tetrahydro-1H-pyrano[3′,4′:6,7]indolizino[1,2-b]quinolin-11-yl)methyl)methanesulfonamide]
IC50 (SKOV-3 (ovarian cancer); 4 d incubation): 19.5 nM
IC50 ([1]; 4 d incubation): 2 nM
IC50 (ZR-75-1 (breast cancer); 5 d incubation): 2.45 nM
IC50 (SK-BR-3 (breast cancer); 4 d incubation): 1.91 nM
IC50 (Calu-3 (lung cancer); 4 d incubation): 3.72 nM

CC[C@@]1(O)C(=O)OCc2c1cc1n(c2=O)Cc2c-1nc1cc(F)c(C)cc1c2CNS(=O)(=O)c1ccccc1 [Compound 125, (S)—N-((4-ethyl-8-fluoro-4-hydroxy-9-methyl-3,14-dioxo-3,4,12,14-tetrahydro-1H-pyrano[3′,4′:6,7]indolizino[1,2-b]quinolin-11-yl)methyl)benzenesulfonamide]
IC50 (SKOV-3 (ovarian cancer)): 7.08 nM
IC50 [1]: 3.8 nM
IC50 (ZR-75-1 (breast cancer)): 1.32 nM
IC50 (SK-BR-3 (breast cancer)): 1.32 nM
IC50 (Calu-3 (lung cancer)): 2.82 nM

CC[C@@]1(O)C(=O)OCc2c1cc1n(c2=O)Cc2c-1nc1cc(F)c(OC)cc1c2CNS(=O)(=O)c1ccccc1 [Compound 126, (S)—N-((4-ethyl-8-fluoro-4-hydroxy-9-methoxy-3,14-dioxo-3,4,12,14-tetrahydro-1H-pyrano[3′,4′:6,7]indolizino[1,2-b]quinolin-11-yl)methyl)benzenesulfonamide]
IC50 (SKOV-3 (ovarian cancer); 4 d incubation): 6.31 nM
IC50 ([1]; 4 d incubation): 1.95 nM
IC50 (ZR-75-1 (breast cancer); 5 d incubation): 0.724 nM
IC50 (SK-BR-3 (breast cancer); 4 d incubation): 1.1 nM
IC50 (Calu-3 (lung cancer); 4 d incubation): 2.95 nM

CC[C@@]1(O)C(=O)OCc2c1cc1n(c2=O)Cc2c-1nc1cc(F)c(C)cc1c2CNS(=O)(=O)c1ccc(N)cc1 [Compound 127, (S)-4-amino-N-((4-ethyl-8-fluoro-4-hydroxy-9-methyl-3,14-dioxo-3,4,12,14-tetrahydro-1H-pyrano[3′,4′:6,7]indolizino[1,2-b]quinolin-11-yl)methyl)benzenesulfonamide]
IC50 (SKOV-3 (ovarian cancer)): 14.5 nM
IC50 [1]: 3.8 nM
IC50 (ZR-75-1 (breast cancer)): 5.25 nM
IC50 (SK-BR-3 (breast cancer)): 3.31 nM
IC50 (Calu-3 (lung cancer)): 9.33 nM

CC[C@@]1(O)C(=O)OCc2c1cc1n(c2=O)Cc2c-1nc1cc(F)c(C)cc1c2CNS(=O)(=O)CCO [Compound 129, (S)—N-((4-ethyl-8-fluoro-4-hydroxy-9-methyl-3,14-dioxo-3,4,12,14-tetrahydro-1H-pyrano[3′,4′:6,7]indolizino[1,2-b]quinolin-11-yl)methyl)-2-hydroxyethane-1-sulfonamide]
IC50 (SKOV-3 (ovarian cancer); 4 d incubation): 20.4 nM
IC50 ([1]; 4 d incubation): 3.98 nM
IC50 (ZR-75-1 (breast cancer); 5 d incubation): 2.63 nM
IC50 (SK-BR-3 (breast cancer); 4 d incubation): 3.09 nM
IC50 (Calu-3 (lung cancer); 4 d incubation): 5.25 nM

CC[C@@]1(O)C(=O)OCc2c1cc1n(c2=O)Cc2c-1nc1cc(F)c(C)cc1c2CNC(=O)NC [Compound 132, (S)-1-((4-ethyl-8-fluoro-4-hydroxy-9-methyl-3,14-dioxo-3,4,12,14-tetrahydro-1H-pyrano[3′,4′:6,7]indolizino[1,2-b]quinolin-11-yl)methyl)-3-methylurea]
IC50 (SKOV-3 (ovarian cancer); 4 d incubation): 105 nM
IC50 ([1]; 4 d incubation): 26.9 nM
IC50 (ZR-75-1 (breast cancer); 5 d incubation): 15.5 nM
IC50 (SK-BR-3 (breast cancer); 4 d incubation): 22.9 nM
IC50 (Calu-3 (lung cancer); 4 d incubation): 51.3 nM

CC[C@@]1(O)C(=O)OCc2c1cc1n(c2=O)Cc2c-1nc1cc(F)c(OC)cc1c2CNC(=O)NC [Compound 133, (S)-1-((4-ethyl-8-fluoro-4-hydroxy-9-methoxy-3,14-dioxo-3,4,12,14-tetrahydro-1H-pyrano[3′,4′:6,7]indolizino[1,2-b]quinolin-11-yl)methyl)-3-methylurea]
IC50 (SKOV-3 (ovarian cancer); 4 d incubation): 74.1 nM
IC50 ([1]; 4 d incubation): 10.7 nM
IC50 (ZR-75-1 (breast cancer); 5 d incubation): 9.77 nM
IC50 (SK-BR-3 (breast cancer); 4 d incubation): 6.76 nM
IC50 (Calu-3 (lung cancer); 4 d incubation): 12 nM

CC[C@@]1(O)C(=O)OCc2c1cc1n(c2=O)Cc2c-1nc1cc(F)c(C)cc1c2CNC(=O)NCc1ccc(N)cc1 [Compound 134, (S)-1-(4-aminobenzyl)-3-((4-ethyl-8-fluoro-4-hydroxy-9-methyl-3,14-dioxo-3,4,12,14-tetrahydro-1H-pyrano[3′,4′:6,7]indolizino[1,2-b]quinolin-11-yl)methyl)urea]
IC50 (SKOV-3 (ovarian cancer); 4 d incubation): 77.6 nM
IC50 ([1]; 4 d incubation): 11.5 nM
IC50 (ZR-75-1 (breast cancer); 5 d incubation): 12 nM
IC50 (SK-BR-3 (breast cancer); 4 d incubation): 9.55 nM
IC50 (Calu-3 (lung cancer); 4 d incubation): 24.5 nM

CC[C@@]1(O)C(=O)OCc2c1cc1n(c2=O)Cc2c-1nc1cc(F)c(C)cc1c2CNC(=O)NCCO [Compound 136, (S)-1-((4-ethyl-8-fluoro-4-hydroxy-9-methyl-3,14-dioxo-3,4,12,14-tetrahydro-1H-pyrano[3′,4′:6,7]indolizino[1,2-b]quinolin-11-yl)methyl)-3-(2-hydroxyethyl)urea]
IC50 (SKOV-3 (ovarian cancer); 4 d incubation): 51.3 nM
IC50 ([1]; 4 d incubation): 6.31 nM
IC50 (ZR-75-1 (breast cancer); 5 d incubation): 5.01 nM
IC50 (SK-BR-3 (breast cancer); 4 d incubation): 3.98 nM
IC50 (Calu-3 (lung cancer); 4 d incubation): 26.3 nM

CC[C@@]1(O)C(=O)OCc2c1cc1n(c2=O)Cc2c-1nc1cc(F)c(C)cc1c2CNC(=O)OC [Compound 138, Methyl-(S)-((4-ethyl-8-fluoro-4-hydroxy-9-methyl-3,14-dioxo-3,4,12,14-tetrahydro-1H-pyrano[3′,4′:6,7]indolizino[1,2-b]quinolin-11-yl)methyl)carbamate]
IC50 (SKOV-3 (ovarian cancer); 4 d incubation): 0.617 nM
IC50 ([1]; 4 d incubation): 0.871 nM
IC50 (ZR-75-1 (breast cancer); 5 d incubation): 0.195 nM
IC50 (SK-BR-3 (breast cancer); 4 d incubation): 0.479 nM
IC50 (Calu-3 (lung cancer); 4 d incubation): 0.389 nM

CC[C@@]1(O)C(=O)OCc2c1cc1n(c2=O)Cc2c-1nc1cc(F)c(C)cc1c2CNC(=O)OCCO [Compound 139, 2-hydroxyethyl (S)-((4-ethyl-8-fluoro-4-hydroxy-9-methyl-3,14-dioxo-3,4,12,14-tetrahydro-1H-pyrano[3′,4′:6,7]indolizino[1,2-b]quinolin-11-yl)methyl)carbamate]
IC50 (SKOV-3 (ovarian cancer); 4 d incubation): 5.01 nM
IC50 ([1]; 4 d incubation): 1.51 nM
IC50 (ZR-75-1 (breast cancer); 5 d incubation): 1.07 nM
IC50 (SK-BR-3 (breast cancer); 4 d incubation): 1.2 nM
IC50 (Calu-3 (lung cancer); 4 d incubation): 7.08 nM

CC[C@@]1(O)C(=O)OCc2c1cc1n(c2=O)Cc2cc3cc(N)c(F)cc3nc2-1 [Compound 140, (S)-9-amino-4-ethyl-8-fluoro-4-hydroxy-1,12-dihydro-14H-pyrano[3′,4′:6,7]indolizino [1,2-b]quinoline-3,14(4H)-dione]
IC50 (SKOV-3 (ovarian cancer); 4 d incubation): 0.457 nM
IC50 ([1]; 4 d incubation): 0.708 nM
IC50 (ZR-75-1 (breast cancer); 5 d incubation): 0.331 nM
IC50 (SK-BR-3 (breast cancer); 4 d incubation): 0.316 nM
IC50 (Calu-3 (lung cancer); 4 d incubation): 0.309 nM

CC[C@@]1(O)C(=O)OCc2c1cc1n(c2=O)Cc2c-1nc1cc(F)c(N)cc1c2CO [Compound 141, (S)-9-amino-4-ethyl-8-fluoro-4-hydroxy-11-(hydroxymethyl)-1,12-dihydro-14H-pyrano[3′,4′:6,7]indolizino[1,2-b]quinoline-3,14(4H)-dione]
IC50 (SKOV-3 (ovarian cancer); 4 d incubation): 2.82 nM
IC50 ([1]; 4 d incubation): 1.45 nM
IC50 (ZR-75-1 (breast cancer); 5 d incubation): 0.309 nM
IC50 (SK-BR-3 (breast cancer); 4 d incubation): 0.347 nM
IC50 (Calu-3 (lung cancer); 4 d incubation): 1.02 nM

CC[C@@]1(O)C(=O)OCc2c1cc1n(c2=O)Cc2c-1nc1cc(F)c(N)cc1c2CN1CCOCC1 [Compound 142, (S)-9-amino-4-ethyl-8-fluoro-4-hydroxy-11-(morpholinomethyl)-1,12-dihydro-14H-pyrano[3′,4′:6,7]indolizino[1,2-b]quinoline-3,14(4H)-dione]
IC50 (SKOV-3 (ovarian cancer); 4 d incubation): 1.29 nM
IC50 ([1]; 4 d incubation): 1.29 nM
IC50 (ZR-75-1 (breast cancer); 5 d incubation): 0.759 nM
IC50 (SK-BR-3 (breast cancer); 4 d incubation): 0.631 nM
IC50 (Calu-3 (lung cancer); 4 d incubation): 1.29 nM

CC[C@@]1(O)C(=O)OCc2c1cc1n(c2=O)Cc2c-1nc1cc(F)c(N)cc1c2CNC(=O)OC [Compound 143, Methyl (S)-((9-amino-4-ethyl-8-fluoro-4-hydroxy-3,14-dioxo-3,4,12,14-tetrahydro-1H-pyrano[3′,4′:6,7]indolizino[1,2-b]quinolin-11-yl)methyl)carbamate]
IC50 (SKOV-3 (ovarian cancer); 4 d incubation): 2.82 nM
IC50 ([1]; 4 d incubation): 0.708 nM
IC50 (ZR-75-1 (breast cancer); 5 d incubation): 0.851 nM
IC50 (SK-BR-3 (breast cancer); 4 d incubation): 0.389 nM
IC50 (Calu-3 (lung cancer); 4 d incubation): 0.708 nM

CC[C@@]1(O)C(=O)OCc2c1cc1n(c2=O)Cc2c-1nc1cc(F)c(N)cc1c2CNC(=O)NC [Compound 144, (S)-1-((9-amino-4-ethyl-8-fluoro-4-hydroxy-3,14-dioxo-3,4,12,14-tetrahydro-1H-pyrano[3′,4′:6,7]indolizino[1,2-b]quinolin-11-yl)methyl)-3-methylurea]
IC50 (SKOV-3 (ovarian cancer); 4 d incubation): 69.2 nM
IC50 ([1]; 4 d incubation): 22.4 nM
IC50 (ZR-75-1 (breast cancer); 5 d incubation): 13.2 nM
IC50 (SK-BR-3 (breast cancer); 4 d incubation): 0.794 nM
IC50 (Calu-3 (lung cancer); 4 d incubation): 22.4 nM

CC[C@@]1(O)C(=O)OCc2c1cc1n(c2=O)Cc2c-1nc1cc(F)c(N)cc1c2CN [Compound 145, (S)-9-amino-11-(aminomethyl)-4-ethyl-8-fluoro-4-hydroxy-1,12-dihydro-14H-pyrano[3′,4′:6,7]indolizino[1,2-b]quinoline-3,14(4H)-dione]
IC50 (SKOV-3 (ovarian cancer); 4 d incubation): 0.933 nM
IC50 ([1]; 4 d incubation): 0.269 nM
IC50 (ZR-75-1 (breast cancer); 5 d incubation): 0.38 nM
IC50 (SK-BR-3 (breast cancer); 4 d incubation): 0.355 nM
IC50 (Calu-3 (lung cancer); 4 d incubation): 0.269 nM
